From patent publication US7998965B2, “Glutamate aggrecanase inhibitors” (Wyeth LLC, priority 2005, dated 2011)
Read-outs that look alike come from different tables or passages of the source.

Assays:
[1] = molecular target: T1, purified recombinant human Aggrecanase-1 (rAgg1) (Homo sapiens, UniProt O75173); test: In vitro fluorescence screen for Aggrecanase-1 inhibitors; type: biochemical; conditions: for IC50: read-out: Agg1 IC50
T1 sequence (O75173 213-837): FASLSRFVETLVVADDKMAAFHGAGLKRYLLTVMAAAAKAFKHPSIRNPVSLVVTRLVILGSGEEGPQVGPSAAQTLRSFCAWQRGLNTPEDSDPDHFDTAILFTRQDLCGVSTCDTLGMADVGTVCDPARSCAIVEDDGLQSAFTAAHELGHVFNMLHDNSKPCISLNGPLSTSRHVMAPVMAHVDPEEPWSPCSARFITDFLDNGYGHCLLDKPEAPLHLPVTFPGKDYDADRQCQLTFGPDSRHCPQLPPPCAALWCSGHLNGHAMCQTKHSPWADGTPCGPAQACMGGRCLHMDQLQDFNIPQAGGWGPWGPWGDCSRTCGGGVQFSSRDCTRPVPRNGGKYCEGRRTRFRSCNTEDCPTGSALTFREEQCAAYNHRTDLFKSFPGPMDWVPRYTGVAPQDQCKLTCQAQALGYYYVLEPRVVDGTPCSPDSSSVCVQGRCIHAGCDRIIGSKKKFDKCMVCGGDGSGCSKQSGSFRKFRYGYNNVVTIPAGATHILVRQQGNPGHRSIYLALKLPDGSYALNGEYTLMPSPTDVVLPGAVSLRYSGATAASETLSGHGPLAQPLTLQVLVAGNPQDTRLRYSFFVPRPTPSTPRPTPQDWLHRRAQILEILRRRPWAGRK

[2] = molecular target: T2, purified recombinant human Aggrecanase-2 (Ag2t-Phe628-Strep) (Homo sapiens, UniProt Q9UNA0); test: In vitro fluorescence screen for Aggrecanase-2 inhibitors; type: biochemical; conditions: read-out: Agg 2 IC50
T2 construct: the form used is denoted as Ag2t-Phe628-Strep (MW=41,737)
T2 sequence (Q9UNA0 262-628): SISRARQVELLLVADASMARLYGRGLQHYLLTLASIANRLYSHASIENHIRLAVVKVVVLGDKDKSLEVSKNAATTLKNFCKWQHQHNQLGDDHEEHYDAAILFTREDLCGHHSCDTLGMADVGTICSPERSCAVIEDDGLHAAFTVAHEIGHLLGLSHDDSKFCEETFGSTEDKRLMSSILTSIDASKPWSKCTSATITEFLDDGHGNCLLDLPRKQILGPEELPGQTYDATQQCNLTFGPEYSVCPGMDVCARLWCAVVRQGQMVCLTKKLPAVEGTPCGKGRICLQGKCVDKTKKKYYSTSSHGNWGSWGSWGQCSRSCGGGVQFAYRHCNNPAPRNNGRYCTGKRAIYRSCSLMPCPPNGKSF

SMILES	IC50 ([1]; Table 1) [nM]	also measured
O=C(O)CC[C@H](NC(=O)c1ccc2c(c1)Cc1ccccc1-2)C(=O)NC12CC3CC(CC(C3)C1)C2 [Example 8AAAAA, N^1-1-adamantyl-N^2-(9H-fluoren-2-ylcarbonyl)-L-α-glutamine]		IC50 ([1]; Table 2): 372 nM; IC50 ([2]; Table 2): 410 nM
O=C(O)CC[C@H](NC(=O)c1ccc(-c2ccccc2)cc1)C(=O)NCC12CC3CC(CC(C3)C1)C2 [Example 8AAAAAA, N-(1-adamantylmethyl)-N^2-(biphenyl-4-ylcarbonyl)-L-α-glutamine]		IC50 ([1]; Table 2): 534 nM; IC50 ([2]; Table 2): 1760 nM
CC(C)(Cc1ccc(Cl)cc1)NC(=O)[C@H](CCC(=O)O)NC(=O)c1ccc(-c2ccc(F)cc2F)cc1 [Example 8AAAAAAA, N-[2-(4-chlorophenyl)-1,1-dimethylethyl]-N^2-[(2′,4′-difluorobiphenyl-4-yl)carbonyl]-L-α-glutamine]		IC50 ([1]; Table 3): 80 nM; IC50 ([2]; Table 3): 550 nM
O=C(O)CC[C@H](NC(=O)C1c2ccccc2-c2ccccc21)C(=O)NC12CC3CC(CC(C3)C1)C2 [Example 8BBBBB, N^1-1-adamantyl-N^2-(9H-fluoren-9-ylcarbonyl)-L-α-glutamine]		IC50 ([1]; Table 2): > 17000 nM; IC50 ([2]; Table 2): 20900 nM
O=C(O)CC[C@H](NC(=O)c1ccc2c(c1)Cc1ccccc1-2)C(=O)N[C@H](CO)Cc1ccccc1 [Example 8BBBBBB, N-[(1S)-1-benzyl-2-hydroxyethyl]-N^2-(9H-fluoren-2-ylcarbonyl)-L-α-glutamine]		IC50 ([1]; Table 2): 470 nM; IC50 ([2]; Table 2): 2670 nM
COc1cc(C(=O)N[C@@H](CCC(=O)O)C(=O)NCc2ccccc2)cc(OC)c1-c1ccccc1 [Example 17AAA, N^1-benzyl-N^2-[(2,6-dimethoxy-1,1′-biphenyl-4-yl)carbonyl]-L-α-glutamine]		Agg1 IC50 (nM) ([1]; Table 1): no inh
COc1ccc(-c2ccccc2)cc1NC(=O)[C@H](CCC(=O)O)NC(=O)c1ccc(-c2ccccc2)cc1 [Example 17BBB, N^2-(1,1′-biphenyl-4-ylcarbonyl)-N^1-(4-methoxy-1,1′-biphenyl-3-yl)-L-α-glutamine]	900	
O=C(O)CC[C@H](NC(=O)c1cccc(-c2ccccc2)c1)C(=O)NCc1ccccc1 [Example 17WW, N^1-benzyl-N^2-(1,1′-biphenyl-3-ylcarbonyl)-L-α-glutamine]		Agg1 IC50 (nM) ([1]; Table 1): no inh
O=C(O)CC[C@H](NC(=O)c1cccc(-c2cccs2)c1)C(=O)NCc1ccccc1 [Example 17XX, N^1-benzyl-N^2-(3-thien-2-ylbenzoyl)-L-α-glutamine]		Agg1 IC50 (nM) ([1]; Table 1): no inh
Cc1cccc(CNC(=O)[C@H](CCC(=O)O)NC(=O)c2ccc(Br)cc2)c1 [Example 18G, N^2-(4-bromobenzoyl)-N-(3-methylbenzyl)-L-α-glutamine]		IC50 ([1]; Table 2): ~8300 nM
O=C(O)CC[C@H](NC(=O)c1ccc(-c2ccccc2)o1)C(=O)NCc1ccccc1 [Example 20, N^1-benzyl-N^2-(5-phenyl-2-furoyl)-L-α-glutamine]	~22000	
O=C(O)CC[C@H](NC(=O)c1ccc(-c2ccco2)o1)C(=O)NCc1ccccc1 [Example 21C, N^1-benzyl-N^2-(2,2′-bifuran-5-ylcarbonyl)-L-α-glutamine]		Agg1 IC50 (nM) ([1]; Table 1): no inh
O=C(O)CC[C@H](NC(=O)c1ccc(-c2cccs2)o1)C(=O)NCc1ccccc1 [Example 21D, N^1-benzyl-N^2-(5-thien-2-yl-2-furoyl)-L-α-glutamine]		Agg1 IC50 (nM) ([1]; Table 1): no inh
CC(=O)Nc1ccc(-c2ccc(C(=O)N[C@@H](CCC(=O)O)C(=O)NCc3ccccc3)cc2)cc1 [Example 23, N^2-{[4′-(acetylamino)-1,1′-biphenyl-4-yl]carbonyl}-N^1-benzyl-L-α-glutamine]	> 6000	
O=C(O)CC[C@H](NC(=O)c1ccc(-c2ccc(NC(=O)Cc3ccccc3)cc2)cc1)C(=O)O [Example 26, N-({4′-[(Phenylacetyl)amino]1,1′-biphenyl-4-yl}carbonyl)-L-α-glutamic acid]	5000	
Cc1c(C(=O)Nc2ccc(-c3ccc(C(=O)N[C@@H](CCC(=O)O)C(=O)O)cc3)cc2)oc2ccccc12 [Example 27, N-[(4′-{[(3-Methyl-1-benzofuran-2-yl)carbonyl]-amino}-1,1′-biphenyl-4-yl)carbonyl]-L-α-glutamic acid]	400	
O=C(O)CC[C@H](NC(=O)c1ccc(-c2ccc(NC(=O)c3ccco3)cc2)cc1)C(=O)O [Example 28, N-{[4′-(2-furoylamino)-1,1′-biphenyl-4-yl]carbonyl}-L-α-glutamic acid]	400	
CC(=O)Nc1ccc(-c2ccc(C(=O)N[C@@H](CCC(=O)O)C(=O)O)cc2)cc1 [Example 29, N-{[4′-(acetylamino)-1,1′-biphenyl-4-yl]carbonyl}-L-α-glutamic acid]	3000	
O=C(O)CC[C@H](NC(=O)c1ccc(-c2ccc(NC(=O)c3ccccc3)cc2)cc1)C(=O)O [Example 30, N-{[4′-(benzoylamino)-1,1′-biphenyl-4-yl]carbonyl}-L-α-glutamic acid]	500	
O=C(O)CC[C@H](NC(=O)c1ccc(-c2ccc(NC(=O)c3cc4ccccc4o3)cc2)cc1)C(=O)O [Example 31, N-({4′-[(1-benzofuran-2-ylcarbonyl)amino]-1,1′-biphenyl-4-yl}carbonyl)-L-α-glutamic acid]	1000	
CC(C)(Cc1ccccc1)NC(=O)[C@H](CCC(=O)O)NC(=O)c1cccc(-c2cccs2)c1 [N-(1,1-dimethyl-2-phenylethyl)-N^2-[3-(2-thienyl)benzoyl]-L-α-glutamine]		IC50 ([1]; Table 3): > 8300 nM

More lines, main results first:

IC50 ([1]; Table 1) [nM]	SMILES	also measured
7900	O=C(O)CC[C@H](NC(=O)c1ccc(-c2ccncc2)cc1)C(=O)NCc1ccccc1 [Example 17VV, N^1-benzyl-N^2-(4-pyridin-4-ylbenzoyl)-L-α-glutamine]	
2000	O=C(O)CC[C@H](NC(=O)c1ccc(-c2ccccc2)cc1Cl)C(=O)NCc1ccccc1 [Example 17YY, N^1-benzyl-N^2-[(3-chloro-1,1′-biphenyl-4-yl)carbonyl]-L-α-glutamine]	
200	O=C(O)CC[C@H](NC(=O)c1ccc(-c2ccccc2)cc1F)C(=O)NCc1ccccc1 [Example 17ZZ, N^1-benzyl-N^2-[(3-fluoro-1,1′-biphenyl-4-yl)carbonyl]-L-α-glutamine]	
2500 to 7500	CCOc1cccc(-c2ccc(C(=O)N[C@@H](CCC(=O)O)C(=O)NCc3ccccc3)o2)c1 [Example 21A, N^1-benzyl-N^2-[5-(3-ethoxyphenyl)-2-furoyl]-L-α-glutamine]	
~6700	Cc1cc(C)cc(-c2ccc(C(=O)N[C@@H](CCC(=O)O)C(=O)NCc3ccccc3)o2)c1 [Example 21B, N^1-benzyl-N^2-[5-(3,5-dimethylphenyl)-2-furoyl]-L-α-glutamine]	
1000	O=C(O)CC[C@H](NC(=O)c1ccc(-c2ccccc2)nc1)C(=O)NCc1ccccc1 [Example 22A, N^1-benzyl-N^2-[(6-phenylpyridin-3-yl)carbonyl]-L-α-glutamine]	
200	COc1cccc(CNC(=O)[C@H](CCC(=O)O)NC(=O)c2ccc(-c3ccccc3)nc2)c1 [Example 22B, N^1-(3-methoxybenzyl)-N^2-[(6-phenylpyridin-3-yl)carbonyl]-L-α-glutamine]	
> 50000	COc1cccc(CNC(=O)[C@H](CCC(=O)O)NC(=O)c2ccc(-c3ccccc3C)c(C)c2)c1 [Example 22C, N^2-[(2,2′-dimethyl-1,1′-biphenyl-4-yl)carbonyl]-N^1-(3-methoxybenzyl)-L-α-glutamine]	
1100	O=C(O)CC[C@H](NC(=O)c1ccc(-c2ccc(NC(=O)c3ccco3)cc2)cc1)C(=O)NCc1ccccc1 [Example 24A, N^1-benzyl-N^2-{[4′-(2-furoylamino)-1,1′-biphenyl-4-yl]carbonyl}-L-α-glutamine]	
~2200	O=C(O)CC[C@H](NC(=O)c1ccc(-c2ccc(NC(=O)c3ccc(F)cc3)cc2)cc1)C(=O)NCc1ccccc1 [Example 24B, N^1-benzyl-N^2-({4′-[(4-fluorobenzoyl)amino]1,1′-biphenyl-4-yl}carbonyl)-L-α-glutamine]	
~300	O=C(O)CC[C@H](NC(=O)c1ccc(-c2ccc(NC(=O)c3ccccc3)cc2)cc1)C(=O)NCc1ccccc1 [Example 24C, N^2-{[4′-(benzoylamino)-1,1′-biphenyl-4-yl]carbonyl}-N^1-benzyl-L-α-glutamine]	
< 30	Cc1ccc(CNC(=O)[C@H](CCC(=O)NO)NC(=O)c2ccc(-c3ccccc3)cc2)cc1C [Example 33B, N^2-(1,1′-biphenyl-4-ylcarbonyl)-N^1-(3,4-dimethylbenzyl)-N^5-hydroxy-L-α-glutamamide]	
